{
  "source": "patent US20260217711A1",
  "about": "“TRIAZOLOPYRIDINYL ETHER LINKED COMPOUNDS AS KINASE INHIBITORS” (Bristol-Myers Squibb Company, priority 2023, published 2026)",
  "data": [
    {"tested_on": "MLKL phosphorylation (pMLKL) in HT29-L23 cells", "test": "MLKL Phosphorylation High-Content Assay", "type": "cell-based", "conditions": "Homo sapiens, 6 h, necroptosis induced with human TNFα, SMAC mimetic and Z-VAD, read-out: LE pMLKL HC IC50", "experimental": "(§1) Following 6 h incubation at 37° C. […] MLKL phosphorylation was detected using anti-MLKL (phospho […]) antibody (Abcam #ab187091) (1:1000 dilution in Blocking Buffer [PBS supplemented with 0.1% BSA]) with ON incubation at 4° C. […] Following another three cycles of washes in PBS, the microplates were sealed, and cellular images were acquired in the Cellomics ArrayScan VTI high-content imager equipped with an X1 camera. […] The image sets were analyzed using the Compartmental Analysis Bioapplication software (Cellomics). The level of MLKL phosphorylation was quantified as […].", "units": {"IC50": "nM"}, "values": [
      {"smiles": "Nc1nc2cc(-c3ccc(Cl)c(OCCC(F)C(O)c4ccc(F)cc4)c3F)ccn2n1", "note": "(single isomer, unassigned) [Example 82, 4-(3-(2-amino-[1,2,4]triazolo[1,5-a]pyridin-7-yl)-6-chloro-2-fluorophenoxy)-2-fluoro-1-(4-fluorophenyl)butan-1-ol]", "IC50": 26}
    ]},
    {"tested_on": "MLKL phosphorylation (pMLKL) in HT29-L23 cells", "test": "MLKL Phosphorylation High-Content Assay", "type": "cell-based", "conditions": "necroptosis induced with human TNFα, SMAC mimetic and Z-VAD, 6 h, read-out: LE pMLKL HC IC50", "experimental": "as §1", "units": {"IC50": "nM"}, "values": [
      {"smiles": "CC(O)(c1ccc(F)cc1)C(F)(F)CCOc1c(F)ccc(-c2ccc3nc(N)nn3c2)c1F", "note": "(single isomer, unassigned) [Example 76, 5-(3-(2-amino-[1,2,4]triazolo[1,5-a]pyridin-6-yl)-2,6-difluorophenoxy)-3,3-difluoro-2-(4-fluorophenyl)pentan-2-ol]", "IC50": 2},
      {"smiles": "CC(O)(c1ccc(F)cc1)C(F)(F)CCOc1ccc(F)c(-c2ccn3nc(N)nc3c2)n1", "note": "(single isomer, unassigned) [Example 77, 5-((6-(2-amino-[1,2,4]triazolo[1,5-a]pyridin-7-yl)-5-fluoropyridin-2-yl)oxy)-3,3-difluoro-2-(4-fluorophenyl)pentan-2-ol]", "IC50": 430},
      {"smiles": "CC(O)(c1ccc(F)cc1)C(F)(F)CCOc1ccc(F)c(-c2ccn3nc(N)nc3c2)n1", "note": "(single isomer, unassigned) [Example 78, 5-((6-(2-amino-[1,2,4]triazolo[1,5-a]pyridin-7-yl)-5-fluoropyridin-2-yl)oxy)-3,3-difluoro-2-(4-fluorophenyl)pentan-2-ol]", "IC50": 13},
      {"smiles": "CC(O)(c1ccc(F)cc1)C(F)(F)CCOc1ccc(Cl)c(-c2ccn3nc(N)nc3c2)n1", "note": "(single isomer, unassigned) [Example 79, 5-((6-(2-amino-[1,2,4]triazolo[1,5-a]pyridin-7-yl)-5-chloropyridin-2-yl)oxy)-3,3-difluoro-2-(4-fluorophenyl)pentan-2-ol]", "IC50": 160},
      {"smiles": "Nc1nc2cc(-c3ccc(Cl)c(OCCC(F)C(O)c4ccc(F)cc4)c3F)ccn2n1", "note": "(single isomer, unassigned) [Example 83, 4-(3-(2-amino-[1,2,4]triazolo[1,5-a]pyridin-7-yl)-6-chloro-2-fluorophenoxy)-2-fluoro-1-(4-fluorophenyl)butan-1-ol]", "IC50": 26},
      {"smiles": "Nc1nc2cc(-c3cccc(OCCC(F)C(O)c4ccc(F)cc4)c3F)ccn2n1", "note": "(single isomer, unassigned) [Example 84, 4-(3-(2-amino-[1,2,4]triazolo[1,5-a]pyridin-7-yl)-2-fluorophenoxy)-2-fluoro-1-(4-fluorophenyl)butan-1-ol]", "IC50": 3.2},
      {"smiles": "Nc1nc2cc(-c3cccc(OCCC(F)C(O)c4ccc(F)cc4)c3F)ccn2n1", "note": "(single isomer, unassigned) [Example 85, 4-(3-(2-amino-[1,2,4]triazolo[1,5-a]pyridin-7-yl)-2-fluorophenoxy)-2-fluoro-1-(4-fluorophenyl)butan-1-ol]", "IC50": 0.9},
      {"smiles": "Nc1nc2cc(-c3cccc(OCCC(F)C(O)c4ccc(F)cc4)c3F)ccn2n1", "note": "(single isomer, unassigned) [Example 86, 4-(3-(2-amino-[1,2,4]triazolo[1,5-a]pyridin-7-yl)-2-fluorophenoxy)-2-fluoro-1-(4-fluorophenyl)butan-1-ol]", "IC50": 17},
      {"smiles": "Nc1nc2cc(-c3cccc(OCCC(F)C(O)c4ccc(F)cc4)c3F)ccn2n1", "note": "(single isomer, unassigned) [Example 87, 4-(3-(2-amino-[1,2,4]triazolo[1,5-a]pyridin-7-yl)-2-fluorophenoxy)-2-fluoro-1-(4-fluorophenyl)butan-1-ol]", "IC50": 0.4},
      {"smiles": "CC(O)(c1ccc(F)cc1)C(F)CCOc1cccc(-c2ccn3nc(N)nc3c2)c1F", "note": "(single isomer, unassigned) [Example 88, 5-(3-(2-amino-[1,2,4]triazolo[1,5-a]pyridin-7-yl)-2-fluorophenoxy)-3-fluoro-2-(4-fluorophenyl)pentan-2-ol]", "IC50": 13},
      {"smiles": "CC(O)(c1ccc(F)cc1)C(F)CCOc1cccc(-c2ccn3nc(N)nc3c2)c1F", "note": "(single isomer, unassigned) [Example 89, 5-(3-(2-amino-[1,2,4]triazolo[1,5-a]pyridin-7-yl)-2-fluorophenoxy)-3-fluoro-2-(4-fluorophenyl)pentan-2-ol]", "IC50": 15},
      {"smiles": "CC(O)(c1ccc(F)cc1)C(F)CCOc1cccc(-c2ccn3nc(N)nc3c2)c1F", "note": "(single isomer, unassigned) [Example 90, 5-(3-(2-amino-[1,2,4]triazolo[1,5-a]pyridin-7-yl)-2-fluorophenoxy)-3-fluoro-2-(4-fluorophenyl)pentan-2-ol]", "IC50": 3},
      {"smiles": "CC(O)(c1ccc(F)cc1)C(F)CCOc1cccc(-c2ccn3nc(N)nc3c2)c1F", "note": "(single isomer, unassigned) [Example 91, 5-(3-(2-amino-[1,2,4]triazolo[1,5-a]pyridin-7-yl)-2-fluorophenoxy)-3-fluoro-2-(4-fluorophenyl)pentan-2-ol]", "IC50": 0.3},
      {"smiles": "CC(O)(c1ccc(F)cc1)C(F)CCOc1cc(-c2ccn3nc(N)nc3c2)cc(F)c1F", "note": "(single isomer, unassigned) [Example 92, 5-(5-(2-amino-[1,2,4]triazolo[1,5-a]pyridin-7-yl)-2,3-difluorophenoxy)-3-fluoro-2-(4-fluorophenyl)pentan-2-ol]", "IC50": 1390},
      {"smiles": "CC(O)(c1ccc(F)cc1)C(F)CCOc1cc(-c2ccn3nc(N)nc3c2)cc(F)c1F", "note": "(single isomer, unassigned) [Example 93, 5-(5-(2-amino-[1,2,4]triazolo[1,5-a]pyridin-7-yl)-2,3-difluorophenoxy)-3-fluoro-2-(4-fluorophenyl)pentan-2-ol]", "IC50": 140},
      {"smiles": "CC(O)(c1ccc(F)cc1)C(F)CCOc1c(F)ccc(-c2ccn3nc(N)nc3c2)c1F", "note": "(single isomer, unassigned) [Example 94, 5-(3-(2-amino-[1,2,4]triazolo[1,5-a]pyridin-7-yl)-2,6-difluorophenoxy)-3-fluoro-2-(4-fluorophenyl)pentan-2-ol]", "IC50": 97},
      {"smiles": "CC(O)(c1ccc(F)cc1)C(F)CCOc1c(F)ccc(-c2ccn3nc(N)nc3c2)c1F", "note": "(single isomer, unassigned) [Example 95, 5-(3-(2-amino-[1,2,4]triazolo[1,5-a]pyridin-7-yl)-2,6-difluorophenoxy)-3-fluoro-2-(4-fluorophenyl)pentan-2-ol]", "IC50": 4},
      {"smiles": "CC(O)(c1ccc(F)cc1)C(F)CCOc1c(F)ccc(-c2ccn3nc(N)nc3c2)c1F", "note": "(single isomer, unassigned) [Example 96, 5-(3-(2-amino-[1,2,4]triazolo[1,5-a]pyridin-7-yl)-2,6-difluorophenoxy)-3-fluoro-2-(4-fluorophenyl)pentan-2-ol]", "IC50": 2},
      {"smiles": "CC(O)(c1ccc(F)cc1)C(F)CCOc1c(F)ccc(-c2ccn3nc(N)nc3c2)c1F", "note": "(single isomer, unassigned) [Example 97, 5-(3-(2-amino-[1,2,4]triazolo[1,5-a]pyridin-7-yl)-2,6-difluorophenoxy)-3-fluoro-2-(4-fluorophenyl)pentan-2-ol]", "IC50": 29},
      {"smiles": "Nc1nc2cc(-c3ccc(Cl)c(OCCC(F)C(O)c4ccc(F)cc4)c3F)ccn2n1", "note": "(single isomer, unassigned) [Example 98, 4-(3-(2-amino-[1,2,4]triazolo[1,5-a]pyridin-7-yl)-6-chloro-2-fluorophenoxy)-2-fluoro-1-(4-fluorophenyl)butan-1-ol]", "IC50": 2},
      {"smiles": "Nc1nc2cc(-c3ccc(Cl)c(OCCC(F)C(O)c4ccc(F)cc4)c3F)ccn2n1", "note": "(single isomer, unassigned) [Example 99, 4-(3-(2-amino-[1,2,4]triazolo[1,5-a]pyridin-7-yl)-6-chloro-2-fluorophenoxy)-2-fluoro-1-(4-fluorophenyl)butan-1-ol]", "IC50": 15}
    ]}
  ]
}
